Source: patent publication US7897627B2, “Heteroaryl derivatives as orexin receptor antagonists” (Hoffmann-La Roche Inc., priority 2007, dated 2011)

target: T1, human orexin-2 (hOX2) receptor (Homo sapiens, UniProt O43614); test: Intracellular Ca2+ mobilization assay (FLIPR), CHO(dHFr-) cells expressing hOX2, orexin-A as agonist; type: cell-based; details: antagonist Kb=IC50/(1+[A]/EC50); orexin-A at EC80; CHO(dHFr-)-OX2R cells; antagonist applied 25 min before agonist
T1 construct: expressed in transfected cells
T1 sequence (O43614 1-444): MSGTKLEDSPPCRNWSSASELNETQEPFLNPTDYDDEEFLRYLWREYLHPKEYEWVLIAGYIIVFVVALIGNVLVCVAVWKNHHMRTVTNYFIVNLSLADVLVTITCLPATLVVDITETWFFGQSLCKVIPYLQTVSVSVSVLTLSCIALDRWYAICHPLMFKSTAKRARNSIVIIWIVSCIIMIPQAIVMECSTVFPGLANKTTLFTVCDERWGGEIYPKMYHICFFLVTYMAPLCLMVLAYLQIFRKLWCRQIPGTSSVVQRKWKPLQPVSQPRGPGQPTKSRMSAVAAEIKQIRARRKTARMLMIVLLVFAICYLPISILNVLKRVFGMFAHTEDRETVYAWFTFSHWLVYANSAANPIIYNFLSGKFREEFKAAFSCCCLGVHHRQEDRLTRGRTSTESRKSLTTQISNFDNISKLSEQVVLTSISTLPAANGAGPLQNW
Protocol: Intracellular Ca^2+ Mobilization Assay
The Chinese Hamster Ovary (dHFr-) mutant cell line stably expressing human orexin-1 (hOX1) or human orexin-2 (hOX2) receptors were maintained in Dulbecco's Modified Eagle Medium (1×) with GlutaMax™1, 4500 mg/L D-Glucose and Sodium Pyruvate (Catalog No. 31966-021, Invitrogen, Carlsbad, Calif.), 5% dialyzed fetal calf serum (Catalog No. 26400-044), 100 μg/ml penicillin and 100 μg/ml streptomycin. The cells were seeded at 5×10^4 cells/well in the poly-D-lysine treated, 96-well, black/clear-bottomed plates (Catalog No. BD356640, BD Biosciences, Palo Alto, Calif.). 24 h later, the cells were loaded for 1 h at 37° C. with 4 μM Flou-4 acetoxymethyl ester (Catalog No. F-14202, Molecular Probes, Eugene, Oreg.) in FLIPR buffer (1×HBSS, 20 mM HEPES, 2.5 mM Probenecid). Hanks' Balanced Salt Solution (HBSS) (10×) (catalog No. 14065-049) and HEPES (1M) (catalog No. 15630-056) were purchased from Invitrogen, Carlsbad, Calif. Probenecid (250 mM) (catalog No. P8761) was from Sigma, Buchs, Switzerland. The cells were washed five times with FLIPR buffer to remove excess dye and intracellular calcium mobilization, [Ca^2−]i were measured using a Fluorometric Imaging Plate Reader (FLIPR-96, Molecular Devices, Menlo Park, Calif.) as described previously (Malherbe et al., Mol. Pharmacol., 64, 823-832, 2003). Orexin A (catalog No. 1455, Toris Cookson Ltd, Bristol, UK) was used as agonist. Orexin A ([…] stock solution in DMSO) was diluted in FLIPR buffer+0.1% BSA. The EC50 and EC80 values of orexin-A were measured daily from standard agonist concentration-response curves in CHO(dHFr-)-OX1R and -OX2R cell lines. All compounds were dissolved in 100% DMSO. Inhibition curves were determined by addition of 11 concentrations (0.0001-10 μM) of inhibitory compounds and using EC80 value of orexin-A as agonist (a concentration which gave 80% of max agonist response, determined daily). The antagonists were applied 25 min (incubation at 37° C.) before the application of the agonist. Responses were measured as peak increase in fluorescence minus basal, normalized to the maximal stimulatory effect induced by EC80 value of orexin-A or orexin-B. Inhibition curves were fitted according to the Hill equation: y=100/(1+(x/IC50)^nH), where nH=slope factor using Excel-fit 4 software (Microsoft).
Kb values were calculated according to the following equation Kb=IC50/(1+[A]/EC50) where A is the concentration of agonist added which is very close to agonist EC80 value, and IC50 and EC50 values were derived from the antagonist inhibition and orexin-A or B agonist curves, respectively.

Compound	Kb
Cc1onc(-c2ccccc2)c1C(=O)N1CC[C@@H](Nc2nc3cc(F)cc(F)c3s2)C1 [Example 134, [(R)-3-(5,7-Difluoro-benzothiazol-2-ylamino)-pyrrolidin-1-yl]-(5-methyl-3-phenyl-isoxazol-4-yl)-methanone]	0.0228 µM
Cc1noc(-c2ccccc2C(=O)N2CC[C@@H](Nc3nc4cc(F)cc(F)c4s3)C2)n1 [Example 135, [(R)-3-(5,7-Difluoro-benzothiazol-2-ylamino)-pyrrolidin-1-yl]-[2-(3-methyl-[1,2,4]oxadiazol-5-yl)-phenyl]-methanone]	0.0394 µM
O=C(c1ccccc1OC(F)(F)C(F)F)N1CC[C@@H](Nc2nc3cccc(F)c3o2)C1 [Example 141, [(R)-3-(7-Fluoro-benzooxazol-2-ylamino)-pyrrolidin-1-yl]-[2-(1,1,2,2-tetrafluoro-ethoxy)-phenyl]-methanone]	0.0138 µM
Cc1ccc(C(F)(F)F)c(C(=O)N2CC[C@@H](Nc3nc4ccc(F)cc4o3)C2)c1 [Example 159, [(R)-3-(6-Fluoro-benzooxazol-2-ylamino)-pyrrolidin-1-yl]-(5-methyl-2-trifluoromethyl-phenyl)-methanone]	0.0205 µM
Cc1nc(C(=O)N2CC[C@@H](Nc3nc4ccc(F)cc4o3)C2)c(-c2ccccc2)s1 [Example 164, [(R)-3-(6-Fluoro-benzooxazol-2-ylamino)-pyrrolidin-1-yl]-(2-methyl-5-phenyl-thiazol-4-yl)-methanone]	0.047 µM
O=C(c1ccccc1OC(F)(F)F)N1CC[C@@H](Nc2cnc3cc(F)c(F)cc3n2)C1 [Example 166, [(R)-3-(6,7-Difluoro-quinoxalin-2-ylamino)-pyrrolidin-1-yl]-(2-trifluoromethoxy-phenyl)-methanone]	0.009 µM
Cc1onc(-c2ccccc2)c1C(=O)N1CC[C@@H](Nc2cnc3cc(F)c(F)cc3n2)C1 [Example 168, [(R)-3-(6,7-Difluoro-quinoxalin-2-ylamino)-pyrrolidin-1-yl]-(5-methyl-3-phenyl-isoxazol-4-yl)-methanone]	0.0038 µM
Cc1noc(-c2ccccc2C(=O)N2CC[C@@H](Nc3cnc4cc(F)c(F)cc4n3)C2)n1 [Example 169, [(R)-3-(6,7-Difluoro-quinoxalin-2-ylamino)-pyrrolidin-1-yl]-[2-(3-methyl-[1,2,4]oxadiazol-5-yl)-phenyl]-methanone]	0.0021 µM
Cc1ccc(Cl)c(C(=O)N2CC[C@@H](Nc3cnc4cc(F)c(F)cc4n3)C2)c1 [Example 170, (2-Chloro-5-methyl-phenyl)-[(R)-3-(6,7-difluoro-quinoxalin-2-ylamino)-pyrrolidin-1-yl]-methanone]	0.0129 µM
COc1ccc(C)cc1C(=O)N1CC[C@@H](Nc2cnc3cc(F)c(F)cc3n2)C1 [Example 171, [(R)-3-(6,7-Difluoro-quinoxalin-2-ylamino)-pyrrolidin-1-yl]-(2-methoxy-5-methyl-phenyl)-methanone]	0.0245 µM
Cc1ccc(C(F)(F)F)c(C(=O)N2CC[C@@H](Nc3cnc4cc(Cl)ccc4n3)C2)c1 [Example 176, [(R)-3-(6-Chloro-quinoxalin-2-ylamino)-pyrrolidin-1-yl]-(5-methyl-2-trifluoromethyl-phenyl)-methanone]	0.014 µM
Cc1nc(C(=O)N2CC[C@@H](Nc3cnc4cc(Cl)ccc4n3)C2)c(-c2ccccc2)s1 [Example 181, [(R)-3-(6-Chloro-quinoxalin-2-ylamino)-pyrrolidin-1-yl]-(2-methyl-5-phenyl-thiazol-4-yl)-methanone]	0.028 µM

The remaining lines, values ahead:

Kb	Compound
0.0386 µM	O=C(c1ccccc1OC(F)(F)F)N1CC[C@@H](Nc2nc3ccc(F)c(F)c3o2)C1 [Example 148, [(R)-3-(6,7-Difluoro-benzooxazol-2-ylamino)-pyrrolidin-1-yl]-(2-trifluoromethoxy-phenyl)-methanone]
0.0072 µM	O=C(c1ccccc1OC(F)(F)C(F)F)N1CC[C@@H](Nc2nc3ccc(F)c(F)c3o2)C1 [Example 149, [(R)-3-(6,7-Difluoro-benzooxazol-2-ylamino)-pyrrolidin-1-yl]-[2-(1,1,2,2-tetrafluoro-ethoxy)-phenyl]-methanone]
0.0136 µM	Cc1ccc(C(F)(F)F)c(C(=O)N2CC[C@@H](Nc3nc4ccc(F)c(F)c4o3)C2)c1 [Example 150, [(R)-3-(6,7-Difluoro-benzooxazol-2-ylamino)-pyrrolidin-1-yl]-(5-methyl-2-trifluoromethyl-phenyl)-methanone]
0.0355 µM	Cc1onc(-c2ccccc2)c1C(=O)N1CC[C@@H](Nc2nc3ccc(F)c(F)c3o2)C1 [Example 151, [(R)-3-(6,7-Difluoro-benzooxazol-2-ylamino)-pyrrolidin-1-yl]-(5-methyl-3-phenyl-isoxazol-4-yl)-methanone]
0.0304 µM	Cc1nc(C(=O)N2CC[C@@H](Nc3nc4ccc(F)c(F)c4o3)C2)c(-c2ccccc2)s1 [Example 155, [(R)-3-(6,7-Difluoro-benzooxazol-2-ylamino)-pyrrolidin-1-yl]-(2-methyl-5-phenyl-thiazol-4-yl)-methanone]
0.0247 µM	O=C(c1ccccc1OC(F)(F)F)N1CC[C@@H](Nc2nc3ccc(F)cc3o2)C1 [Example 157, [(R)-3-(6-Fluoro-benzooxazol-2-ylamino)-pyrrolidin-1-yl]-(2-trifluoromethoxy-phenyl)-methanone]
0.0039 µM	O=C(c1ccccc1OC(F)(F)C(F)F)N1CC[C@@H](Nc2nc3ccc(F)cc3o2)C1 [Example 158, [(R)-3-(6-Fluoro-benzooxazol-2-ylamino)-pyrrolidin-1-yl]-[2-(1,1,2,2-tetrafluoro-ethoxy)-phenyl]-methanone]
0.0185 µM	O=C(c1ccccc1C(F)(F)F)N1CC[C@@H](Nc2cnc3cc(F)c(F)cc3n2)C1 [Example 165, [(R)-3-(6,7-Difluoro-quinoxalin-2-ylamino)-pyrrolidin-1-yl]-(2-trifluoromethyl-phenyl)-methanone]
0.001 µM	O=C(c1ccccc1OC(F)(F)C(F)F)N1CC[C@@H](Nc2cnc3cc(F)c(F)cc3n2)C1 [Example 167, [(R)-3-(6,7-Difluoro-quinoxalin-2-ylamino)-pyrrolidin-1-yl]-[2-(1,1,2,2-tetrafluoro-ethoxy)-phenyl]-methanone]
0.0032 µM	Cc1nc(C(=O)N2CC[C@@H](Nc3cnc4cc(F)c(F)cc4n3)C2)c(-c2ccccc2)s1 [Example 172, [(R)-3-(6,7-Difluoro-quinoxalin-2-ylamino)-pyrrolidin-1-yl]-(2-methyl-5-phenyl-thiazol-4-yl)-methanone]
0.0187 µM	O=C(c1ccccc1OC(F)(F)C(F)F)N1CC[C@@H](Nc2cnc3cc(Cl)ccc3n2)C1 [Example 175, [(R)-3-(6-Chloro-quinoxalin-2-ylamino)-pyrrolidin-1-yl]-[2-(1,1,2,2-tetrafluoro-ethoxy)-phenyl]-methanone]
0.0423 µM	Cc1onc(-c2ccccc2)c1C(=O)N1CC[C@@H](Nc2cnc3cc(Cl)ccc3n2)C1 [Example 177, [(R)-3-(6-Chloro-quinoxalin-2-ylamino)-pyrrolidin-1-yl]-(5-methyl-3-phenyl-isoxazol-4-yl)-methanone]
0.0244 µM	Cc1noc(-c2ccccc2C(=O)N2CC[C@@H](Nc3cnc4cc(Cl)ccc4n3)C2)n1 [Example 178, [(R)-3-(6-Chloro-quinoxalin-2-ylamino)-pyrrolidin-1-yl]-[2-(3-methyl-[1,2,4]oxadiazol-5-yl)-phenyl]-methanone]
